Assay results as given in ChEMBL document CHEMBL2074181, “Interactions of glycyrrhizin with organic anion transporting polypeptides of rat and human liver” (Hepatol Res, 2003).

Experiments:
[1] = target: T1, Solute carrier organic anion transporter family member 1B3 (Homo sapiens, UniProt Q9NPD5); assay: TP_TRANSPORTER: inhibition of BSP uptake in Xenopus laevis oocytes; type: functional, cell-based, Oocyte
T1 sequence (Q9NPD5 whole entry): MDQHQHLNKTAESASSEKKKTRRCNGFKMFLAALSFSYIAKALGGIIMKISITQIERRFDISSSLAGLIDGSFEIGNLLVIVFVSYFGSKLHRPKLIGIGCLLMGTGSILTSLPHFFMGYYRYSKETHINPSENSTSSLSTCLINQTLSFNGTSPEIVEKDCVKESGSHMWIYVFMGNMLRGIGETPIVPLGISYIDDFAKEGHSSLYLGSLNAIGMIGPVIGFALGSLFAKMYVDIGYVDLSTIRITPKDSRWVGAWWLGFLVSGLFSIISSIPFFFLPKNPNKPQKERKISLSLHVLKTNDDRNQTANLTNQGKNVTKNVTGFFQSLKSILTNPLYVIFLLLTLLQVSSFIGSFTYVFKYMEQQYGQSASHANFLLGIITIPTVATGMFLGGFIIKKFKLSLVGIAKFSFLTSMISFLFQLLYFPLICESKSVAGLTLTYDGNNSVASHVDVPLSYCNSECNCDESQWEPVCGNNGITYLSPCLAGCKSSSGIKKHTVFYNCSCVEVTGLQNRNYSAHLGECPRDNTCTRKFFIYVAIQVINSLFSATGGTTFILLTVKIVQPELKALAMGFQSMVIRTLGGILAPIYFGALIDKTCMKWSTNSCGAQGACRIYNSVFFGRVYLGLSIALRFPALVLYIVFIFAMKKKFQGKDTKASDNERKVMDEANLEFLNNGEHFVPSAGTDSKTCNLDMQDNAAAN

[2] = target: T2, Solute carrier organic anion transporter family member 2B1 (Homo sapiens, UniProt O94956); assay: TP_TRANSPORTER: inhibition of E1S uptake (E1S: 0.05 uM, GL: 100 uM) of Glycyrrhizic acid at a concentration of 100 u M in Xenopus laevis oocytes; type: functional, cell-based; details: oocyte
T2 sequence (O94956 whole entry): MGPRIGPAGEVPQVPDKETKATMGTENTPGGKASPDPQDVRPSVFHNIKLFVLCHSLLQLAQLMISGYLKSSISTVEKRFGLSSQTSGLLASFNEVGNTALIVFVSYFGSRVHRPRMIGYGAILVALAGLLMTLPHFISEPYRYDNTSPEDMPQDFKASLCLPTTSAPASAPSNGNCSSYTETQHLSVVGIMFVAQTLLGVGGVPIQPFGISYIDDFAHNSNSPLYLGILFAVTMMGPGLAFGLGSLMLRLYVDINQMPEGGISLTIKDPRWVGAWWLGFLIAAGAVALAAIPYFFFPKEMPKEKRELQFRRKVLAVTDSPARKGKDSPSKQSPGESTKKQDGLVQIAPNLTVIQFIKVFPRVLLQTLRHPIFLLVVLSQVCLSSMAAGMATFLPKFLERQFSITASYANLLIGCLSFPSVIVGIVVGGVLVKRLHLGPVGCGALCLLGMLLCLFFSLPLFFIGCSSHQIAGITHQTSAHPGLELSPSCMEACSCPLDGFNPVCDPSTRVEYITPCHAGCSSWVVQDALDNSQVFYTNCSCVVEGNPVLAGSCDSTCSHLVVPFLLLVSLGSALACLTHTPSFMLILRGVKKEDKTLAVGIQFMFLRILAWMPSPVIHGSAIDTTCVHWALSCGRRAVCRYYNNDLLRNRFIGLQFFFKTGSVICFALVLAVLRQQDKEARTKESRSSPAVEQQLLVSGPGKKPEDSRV

[3] = target: T3, Solute carrier organic anion transporter family member 1B3 (OATP1B3) (Homo sapiens, UniProt Q9NPD5); assay: (§1) TP_TRANSPORTER: inhibition of E1S uptake (E1S: 0.05 uM, GL: 100 uM) in Xenopus laevis oocytes; type: functional, cell-based, Oocyte; parameters: scale not given: the % may be the effect or the level left; details: Xenopus laevis oocytes expressing OATP1B3, probe E1S (0.05 uM), read-out: Activity
T3 sequence (Q9NPD5 whole entry): T1 sequence (Q9NPD5 whole entry)

[4] = target: T4, Solute carrier organic anion transporter family member 1A4 (OATP1A4) (Rattus norvegicus, UniProt O35913); assay: as §1; type: functional, cell-based, Oocyte; parameters: scale not given: the % may be the effect or the level left; details: Xenopus laevis oocytes expressing OATP1A4, probe E1S (0.05 uM), read-out: Activity
T4 sequence (O35913 whole entry): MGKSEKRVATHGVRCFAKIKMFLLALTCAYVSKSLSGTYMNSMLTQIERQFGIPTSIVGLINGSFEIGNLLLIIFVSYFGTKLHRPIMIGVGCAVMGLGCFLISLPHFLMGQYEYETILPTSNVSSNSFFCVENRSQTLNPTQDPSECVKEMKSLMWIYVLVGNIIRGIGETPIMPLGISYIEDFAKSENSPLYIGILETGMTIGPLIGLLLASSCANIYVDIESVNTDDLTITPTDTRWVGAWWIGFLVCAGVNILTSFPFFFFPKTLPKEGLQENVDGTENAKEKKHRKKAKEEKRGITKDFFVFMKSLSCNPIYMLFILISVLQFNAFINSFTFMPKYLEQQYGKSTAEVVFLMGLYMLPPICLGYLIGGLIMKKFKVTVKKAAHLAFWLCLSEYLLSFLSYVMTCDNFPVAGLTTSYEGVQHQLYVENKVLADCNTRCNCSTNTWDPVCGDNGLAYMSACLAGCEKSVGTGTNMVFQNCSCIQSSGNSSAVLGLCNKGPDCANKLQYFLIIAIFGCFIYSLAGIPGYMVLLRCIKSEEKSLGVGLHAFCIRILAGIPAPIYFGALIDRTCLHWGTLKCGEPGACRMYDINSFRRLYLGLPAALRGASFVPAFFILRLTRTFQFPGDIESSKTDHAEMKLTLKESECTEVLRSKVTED

[5] = target: T5, Solute carrier organic anion transporter family member 1A5 (OATP1A5) (Rattus norvegicus, UniProt O88397); assay: as §1; type: functional, cell-based, Oocyte; parameters: scale not given: the % may be the effect or the level left; details: Xenopus laevis oocytes expressing OATP1A5, probe E1S (0.05 uM), read-out: Activity
T5 sequence (O88397 whole entry): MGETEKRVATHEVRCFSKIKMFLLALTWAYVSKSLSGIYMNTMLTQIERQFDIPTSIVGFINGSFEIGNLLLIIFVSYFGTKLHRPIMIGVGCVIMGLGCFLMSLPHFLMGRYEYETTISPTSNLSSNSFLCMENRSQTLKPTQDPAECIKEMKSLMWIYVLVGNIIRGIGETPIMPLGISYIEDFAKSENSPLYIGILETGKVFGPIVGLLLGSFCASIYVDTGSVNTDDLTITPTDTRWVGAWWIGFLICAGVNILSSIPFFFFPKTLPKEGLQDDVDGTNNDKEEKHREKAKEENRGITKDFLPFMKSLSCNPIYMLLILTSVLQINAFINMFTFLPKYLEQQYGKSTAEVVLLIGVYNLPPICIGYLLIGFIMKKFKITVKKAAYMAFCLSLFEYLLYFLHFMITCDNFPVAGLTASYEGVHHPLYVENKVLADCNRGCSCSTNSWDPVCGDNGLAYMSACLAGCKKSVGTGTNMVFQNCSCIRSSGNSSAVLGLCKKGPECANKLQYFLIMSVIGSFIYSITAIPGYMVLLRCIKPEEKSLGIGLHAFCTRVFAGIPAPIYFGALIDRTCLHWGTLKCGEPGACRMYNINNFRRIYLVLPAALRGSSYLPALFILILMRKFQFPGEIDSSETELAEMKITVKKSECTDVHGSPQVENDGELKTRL

[6] = target: T6, Solute carrier organic anion transporter family member 1A1 (Rattus norvegicus, UniProt P46720); assay: as §1; type: functional, cell-based; parameters: scale not given: the % may be the effect or the level left; details: oocyte
T6 sequence (P46720 whole entry): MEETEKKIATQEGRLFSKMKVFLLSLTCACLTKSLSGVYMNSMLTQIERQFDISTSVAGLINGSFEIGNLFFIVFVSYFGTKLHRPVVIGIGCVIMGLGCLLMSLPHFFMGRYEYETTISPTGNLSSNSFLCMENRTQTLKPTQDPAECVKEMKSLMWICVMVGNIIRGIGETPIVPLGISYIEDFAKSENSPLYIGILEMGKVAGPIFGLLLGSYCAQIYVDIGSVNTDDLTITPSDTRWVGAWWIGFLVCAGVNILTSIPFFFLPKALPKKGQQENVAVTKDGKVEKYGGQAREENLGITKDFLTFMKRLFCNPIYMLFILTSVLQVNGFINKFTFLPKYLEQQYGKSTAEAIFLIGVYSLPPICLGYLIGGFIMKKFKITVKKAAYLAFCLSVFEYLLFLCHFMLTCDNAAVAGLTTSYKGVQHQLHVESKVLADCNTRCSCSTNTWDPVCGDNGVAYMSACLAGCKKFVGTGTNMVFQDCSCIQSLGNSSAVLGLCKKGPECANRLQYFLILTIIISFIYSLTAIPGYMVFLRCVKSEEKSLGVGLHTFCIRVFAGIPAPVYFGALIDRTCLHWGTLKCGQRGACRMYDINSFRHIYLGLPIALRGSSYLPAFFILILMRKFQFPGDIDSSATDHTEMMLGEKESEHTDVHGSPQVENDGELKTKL

[7] = target: T7, Solute carrier organic anion transporter family member 1B1 (Homo sapiens, UniProt Q9Y6L6); assay: (§2) TP_TRANSPORTER: inhibition of E1S uptake in Xenopus laevis oocytes; type: functional, cell-based, Oocyte
T7 sequence (Q9Y6L6 whole entry): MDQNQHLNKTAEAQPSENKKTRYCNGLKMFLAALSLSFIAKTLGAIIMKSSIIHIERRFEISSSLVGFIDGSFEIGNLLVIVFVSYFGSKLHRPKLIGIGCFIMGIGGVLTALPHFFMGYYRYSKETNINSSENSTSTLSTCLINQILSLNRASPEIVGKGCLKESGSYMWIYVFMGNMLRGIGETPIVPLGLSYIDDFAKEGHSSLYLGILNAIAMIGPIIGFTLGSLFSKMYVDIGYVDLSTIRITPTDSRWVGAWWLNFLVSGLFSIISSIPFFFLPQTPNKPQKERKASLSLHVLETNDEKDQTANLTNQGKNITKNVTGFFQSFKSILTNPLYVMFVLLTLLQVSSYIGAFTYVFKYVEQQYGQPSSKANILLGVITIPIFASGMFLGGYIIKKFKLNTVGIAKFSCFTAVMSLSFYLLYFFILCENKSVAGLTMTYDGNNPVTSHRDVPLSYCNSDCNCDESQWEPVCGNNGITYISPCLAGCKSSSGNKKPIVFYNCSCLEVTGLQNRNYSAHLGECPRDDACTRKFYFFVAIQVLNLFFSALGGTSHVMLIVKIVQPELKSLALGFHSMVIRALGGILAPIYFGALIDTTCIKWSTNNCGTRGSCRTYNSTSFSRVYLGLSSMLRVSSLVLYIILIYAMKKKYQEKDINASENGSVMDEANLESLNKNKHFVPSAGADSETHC

[8] = target: T8, Solute carrier organic anion transporter family member 1B2 (Rattus norvegicus, UniProt Q9QZX8); assay: as §2; type: functional, cell-based, Oocyte
T8 sequence (Q9QZX8 whole entry): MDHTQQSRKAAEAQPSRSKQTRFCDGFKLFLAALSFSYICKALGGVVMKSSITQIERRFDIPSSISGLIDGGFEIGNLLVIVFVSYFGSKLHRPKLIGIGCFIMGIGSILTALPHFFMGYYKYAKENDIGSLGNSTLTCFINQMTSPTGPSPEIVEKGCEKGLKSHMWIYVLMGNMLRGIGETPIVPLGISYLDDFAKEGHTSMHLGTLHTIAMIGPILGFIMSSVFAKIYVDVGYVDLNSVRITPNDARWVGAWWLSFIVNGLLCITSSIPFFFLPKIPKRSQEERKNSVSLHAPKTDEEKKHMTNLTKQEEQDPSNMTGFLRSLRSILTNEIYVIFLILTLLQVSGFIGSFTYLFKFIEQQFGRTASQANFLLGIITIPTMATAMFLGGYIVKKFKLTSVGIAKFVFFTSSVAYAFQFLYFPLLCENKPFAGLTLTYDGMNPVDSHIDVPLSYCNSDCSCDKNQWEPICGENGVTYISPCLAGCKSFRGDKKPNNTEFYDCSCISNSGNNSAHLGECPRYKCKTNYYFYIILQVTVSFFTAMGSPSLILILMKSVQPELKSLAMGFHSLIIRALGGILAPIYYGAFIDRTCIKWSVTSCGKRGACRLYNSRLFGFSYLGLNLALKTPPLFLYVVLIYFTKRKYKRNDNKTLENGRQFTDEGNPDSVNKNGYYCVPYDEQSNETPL

[9] = target: T9, Solute carrier organic anion transporter family member 1A2 (Homo sapiens, UniProt P46721); assay: TP_TRANSPORTER: inhibition of E1S uptake (E1S: 0.05 uM, GL: 100 uM) by Glycyrrhizic acid at a concentration of 100 u M in Xenopus laevis oocytes; type: functional, cell-based; details: oocyte
T9 sequence (P46721 whole entry): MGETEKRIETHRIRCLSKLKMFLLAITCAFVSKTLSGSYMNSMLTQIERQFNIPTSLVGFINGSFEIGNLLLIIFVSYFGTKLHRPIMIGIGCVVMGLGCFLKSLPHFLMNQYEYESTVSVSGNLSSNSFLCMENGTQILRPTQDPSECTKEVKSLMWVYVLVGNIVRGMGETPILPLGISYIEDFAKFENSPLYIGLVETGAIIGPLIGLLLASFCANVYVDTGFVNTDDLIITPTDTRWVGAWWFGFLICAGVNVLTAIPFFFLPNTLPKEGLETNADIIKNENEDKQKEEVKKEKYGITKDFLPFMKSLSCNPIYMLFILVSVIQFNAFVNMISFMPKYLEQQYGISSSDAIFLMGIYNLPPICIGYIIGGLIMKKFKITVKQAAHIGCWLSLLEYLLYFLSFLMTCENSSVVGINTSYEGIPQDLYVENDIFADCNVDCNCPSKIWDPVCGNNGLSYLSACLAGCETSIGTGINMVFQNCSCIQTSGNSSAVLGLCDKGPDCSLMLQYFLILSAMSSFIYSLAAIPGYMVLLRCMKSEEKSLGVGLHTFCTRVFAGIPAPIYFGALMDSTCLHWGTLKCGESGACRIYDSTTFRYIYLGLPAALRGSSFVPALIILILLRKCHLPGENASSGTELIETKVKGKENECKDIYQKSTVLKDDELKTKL

CC1(C)[C@@H](O[C@H]2O[C@H](C(=O)O)[C@@H](O)[C@H](O)[C@H]2O[C@@H]2O[C@H](C(=O)O)[C@@H](O)[C@H](O)[C@H]2O)CC[C@]2(C)[C@H]3C(=O)C=C4[C@@H]5C[C@@](C)(C(=O)O)CC[C@]5(C)CC[C@@]4(C)[C@]3(C)CC[C@@H]12 [GLYCYRRHIZIN]
Ki [1]: 12.5 µM
Activity [2]: is not an inhibitor [-]
activity at 100 µM [3]: 0%
activity at 100 µM [4]: 47%
activity at 100 µM [5]: 51%
Activity [6]: 52%
Ki [7]: 15.9 µM
Ki [8]: 6.1 µM
Activity [9]: is not an inhibitor [-]
